Structures are written as SMILES. ≈ marks a conversion by molar mass, not a printed value. Calls of active or inactive are those of the source. Bridge positions count the residues as written; N and C are the ends. Square brackets hold non-standard residues; d marks the D form. Peptide text beside a SMILES is read from it. * marks the point of attachment. X1 = CC[C@H](C)CCCCC(=O)*; Dab = NCC[C@H](N)C(=O)O

The test system of one assay is Staphylococcus aureus. Kind of assay: Synergistic antibacterial activity against Staphylococcus aureus ATCC 29213 assessed as fold reduction in melittin activity at 75 mg/l by checkerboard assay. In kind it is functional.
Assay [1] has as its system Cell membrane. Kind of assay: Induction of membrane permeabilization in polymyxin-B resistant Escherichia coli MG1655 assessed as fluorescence increase incubated for 10 mins in presence of triton X-100 by DiSC3(5) dye based fluorescence spectrometer analysis. In kind it is subcellular.
Assay [2] relates to Escherichia coli. Kind of assay: Synergistic antibacterial activity against polymyxin B resistant Escherichia coli MG1655 assessed as fold reduction in polymyxin B MIC by checkerboard assay. It counts as functional.
Assay [3] has as its system Escherichia coli. Kind of assay: Synergistic antibacterial activity against polymyxin B resistant Escherichia coli MG1655 assessed as fractional inhibitory concentration by checkerboard assay. It counts as functional.
Assay [4] relates to Cell membrane. Kind of assay: Induction of membrane permeabilization in polymyxin-B resistant Escherichia coli MG1655 assessed as increase in fluorescence by DiSC3(5) staining based fluorescence spectrometer analysis (reference value: 8.5). In kind it is subcellular.
The subject of assay [5] is Escherichia coli. Kind of assay: Additive antibacterial activity against Escherichia coli MG1655 assessed as fold reduction in polymyxin B MIC at 100 mg/L by checkerboard assay. It counts as functional.
Assay [6] relates to Cell membrane. Kind of assay: Induction of membrane permeabilization in polymyxin-B resistant Escherichia coli MG1655 assessed as increase in fluorescence after 4 mins by DiSC3(5) staining based fluorescence spectrometer analysis (reference value: 8.5). It counts as subcellular.
Assay [7] relates to Cell membrane. Kind of assay: Induction of membrane permeabilization in polymyxin-B resistant Escherichia coli MG1655 assessed as fluorescence increase incubated for 10 mins in presence of polymyxin B by DiSC3(5) dye based fluorescence spectrometer analysis. It counts as subcellular.
Assay [8] relates to Escherichia coli. Kind of assay: Antibacterial activity against Escherichia coli MG1655. It counts as functional.
Assay [9] concerns Escherichia coli. Kind of assay: Antibacterial activity against resistant Escherichia coli MG1655. In kind it is functional.
The test system of assay [10] is Escherichia coli. Kind of assay: Antibacterial activity against Escherichia coli MG1655 in presence of 6.25 mg/l perforone. In kind it is functional.
The test system of assay [11] is Escherichia coli. Kind of assay: Antibacterial activity against polymyxin-B resistant Escherichia coli MG1655. In kind it is functional.
The subject of assay [12] is Escherichia coli. Kind of assay: Antibacterial activity against Escherichia coli MG1655 in presence of 50 mg/l perforone. In kind it is functional.

Consider `COc1c2c(nc3occc13)[C@@]1(OC)CCC(C)(C)O[C@@]1(O)CC2`, for which the “fold change (FC)” value amounted to 2 in the assay on Staphylococcus aureus, 16 in the assay on Escherichia coli [2] and 2 in the assay with Escherichia coli [5]. The result with Cell membrane [1] and in the assay on Cell membrane [7] was inactive. Further, in the assay with Escherichia coli [3], the FIC was found to be 0.19. The values for the Flu intensity in the assay on Cell membrane [4] and in the assay with Cell membrane [6] were 29.2 a.u and 19.7 a.u, respectively.

A word on the MIC: it is the smallest concentration in the dilution series that meets the test's criterion for growth inhibition. `CC[C@H]1OC(=O)[C@H](C)[C@@H](O[C@H]2C[C@@](C)(OC)[C@@H](O)[C@H](C)O2)[C@H](C)[C@@H](O[C@@H]2O[C@H](C)C[C@H](N(C)C)[C@H]2O)[C@](C)(O)C[C@@H](C)CN(C)[C@H](C)[C@@H](O)[C@]1(C)O` [AZITHROMYCIN]: the MIC stood at 4 µg/mL (≈ 5.34 µM) against Escherichia coli [8] and 128 µg/mL (≈ 171 µM) in the assay on Escherichia coli [9].

As to `C[C@H]1c2cccc(O)c2C(=O)C2=C(O)[C@]3(O)C(=O)C(C(N)=O)=C(O)[C@@H](N(C)C)[C@@H]3[C@@H](O)[C@@H]21.O` [DOXYCYCLINE], the MIC against Escherichia coli [8] came out at 0.25 µg/mL; in the assay with Escherichia coli [9], 60 µg/mL.

As for `CC[C@H](C)CCCCC(=O)N[C@@H](CCN)C(=O)N[C@H](C(=O)N[C@@H](CCN)C(=O)N[C@H]1CCNC(=O)[C@H]([C@@H](C)O)NC(=O)[C@H](CCN)NC(=O)[C@H](CCN)NC(=O)[C@H](CC(C)C)NC(=O)[C@@H](Cc2ccccc2)NC(=O)[C@H](CCN)NC1=O)[C@@H](C)O` (X1-[Dab]T[Dab][Dab][Dab][dF]L[Dab][Dab]T; lactam 4-C), the MIC stood at 0.5 µg/mL (≈ 0.415 µM) in the assay on Escherichia coli [8]; 2 µg/mL in the assay on Escherichia coli [10]; 256 µg/mL (≈ 213 µM) with Escherichia coli [11]; 16 µg/mL with Escherichia coli [12]; 256 µg/mL (≈ 213 µM) with Escherichia coli [9].

Turning to `CC(C)C[C@@H]1NC(=O)[C@@H](Cc2ccccc2)NC(=O)[C@H](CCN)NC(=O)[C@@H](NC(=O)[C@H](CCN)NC(=O)[C@@H](NC(=O)[C@@H](N)CCN)[C@@H](C)O)CCNC(=O)[C@H]([C@@H](C)O)NC(=O)[C@H](CCN)NC(=O)[C@H](CCN)NC1=O` (H-[Dab]T[Dab][Dab][Dab][dF]L[Dab][Dab]T; lactam 4-C), the outcome in the assay with Escherichia coli [11] was Active.
